Reference: patent US20250223306A1, “TEAD INHIBITORS AND METHODS OF USE” (Sporos BioDiscovery, Inc., priority 2022, published 2025)
pEC50: −log10 of the molar value.

What was measured:
Type in all cases: cell-based
[1] = system: Mero14 cells; test: Mero14 proliferation and cell viability assay (CTG); details: Mero14 cell line, 144 hours
Procedure: Mero14 cells were trypsinised, counted and plated at 400 cells/well in 200 μl of growth media in 96 well flat bottom tissue culture treated plates. The plated cells were incubated overnight at 37° C., 5% CO2 before being treated with compounds in triplicate for each assay point. 50 μl of the serially diluted compound was added to each well giving a final DMSO concentration of 0.5% per well and a total volume of 250 μl per well. The treated cells were incubated for 144 hours (6 days) at 37° C., 5% CO2. Following compound treatment the remaining viable cells were detected using the Promega CellTiter-Glo 2.0 assay as follows: 150 μl of media was removed from each of the wells to be assayed and 100 μl of room temperature CellTiter-Glo 2.0 reagent was added. The plate was placed on an orbital shaker at 500 rpm at room temperature for 2 minutes, and then incubated without shaking for a further 10 minutes at room temperature. 150 μl of cell lysate was removed from each well and dispensed into a single well of a white opaque 96 well plate.
Luminescence at 545 nm was read using a BMG CLARIOstar plate reader. The luminescent signal was directly proportional to number of viable cells, the percent of viable cells relative to the DMSO control was then calculated for each assay point. Percent viability relative to DMSO control is plotted against compound concentration and a curve fitted with non-linear regression in GraphPad Prism software. IC50 values were calculated using GraphPad Prism software as follows: For Relative IC50 values, a non-constrained four-parameter logistic curve fit was used (Sigmoidal, 4PL, X is concentration). For Absolute IC50 values the baseline was constrained to Y=0 (Absolute IC50, X is concentration). Area Under the Curve (AUC): Prism computed area-under-the-curve by the trapezoidal method. The analysis sees a fitted curve as simply a series of connected XY points. Prism simply computes the area under the “curve” defined by connecting the points by straight lines. The units of the AUC are the units of the Y axis times units of the X axis.

[2] = system: Mero82 cells; test: Mero82 proliferation and cell viability assay (CTG); details: Mero82 cell line, 144 hours
Procedure: Mero 82 cells were trypsinised, counted and plated at 400 cells/well in 200 μl of growth media in 96 well flat bottom tissue culture treated plates. The plated cells were incubated overnight at 37° C., 5% CO2 before being treated with compounds in triplicate for each assay point. 50 μl of the serially diluted compound was added to each well giving a final DMSO concentration of 0.5% per well and a total volume of 250 μl per well. The treated cells were incubated for 144 hours (6 days) at 37° C., 5% CO2. Following compound treatment, the remaining viable cells were detected using the Promega CellTiter-Glo 2.0 assay as follows: 150 μl of media was removed from each of the wells to be assayed and 100 μl of room temperature CellTiter-Glo 2.0 reagent was added. The plate was placed on an orbital shaker at 500 rpm at room temperature for 2 minutes, and then incubated without shaking for a further 10 minutes at room temperature. 150 μl of cell lysate was removed from each well and dispensed into a single well of a white opaque 96 well plate. Luminescence at 545 nm was read using a BMG CLARIOstar plate reader. The luminescent signal was directly proportional to number of viable cells, the percent of viable cells relative to the DMSO control was then calculated for each assay point. Percent viability relative to DMSO control is plotted against compound concentration and a curve fitted with non-linear regression in GraphPad Prism software. IC50 values were calculated using GraphPad Prism software as follows: For Relative IC50 values a non-constrained four-parameter logistic curve fit was used (Sigmoidal, 4PL, X is concentration). For Absolute IC50 values the baseline was constrained to Y=0 (Absolute IC50, X is concentration). Area Under the Curve (AUC): Prism computes area-under-the-curve by the trapezoidal method. The analysis sees a fitted curve as simply a series of connected XY points. Prism simply computes the area under the “curve” defined by connecting the points by straight lines. The units of the AUC are the units of the Y axis times units of the X axis.

[3] = system: MSTO-211H cells; test: MSTO-211H proliferation and cell viability assay (CTG); details: Homo sapiens, MSTO-211H cell line, 144 hours
Procedure: MSTO-211H cells were trypsinised, counted and plated at the specified cell density in 200 μl of growth media in 96 well flat bottom tissue culture treated plates. The plated cells were incubated overnight at 37° C., 5% CO2 before being treated with compounds in triplicate for each assay point. 50 μl of the serially diluted compound was added to each well giving a final DMSO concentration of 0.5% per well and a total volume of 250 μl per well. The treated cells were incubated for 144 hours (6 days) at 37° C., 5% CO2. Following compound treatment, the remaining viable cells were detected using the Promega CellTiter-Glo 2.0 assay as follows: 150 μl of media was removed from each of the wells to be assayed and 100 μl of room temperature CellTiter-Glo 2.0 reagent was added. The plate was placed on an orbital shaker at 500 rpm at room temperature for 2 minutes, and then incubated without shaking for a further 10 minutes at room temperature. 150 μl of cell lysate was removed from each well and dispensed into a single well of a white opaque 96 well plate. Luminescence at 545 nm is read using a BMG CLARIOstar plate reader. The luminescent signal was directly proportional to number of viable cells, the percent of viable cells relative to the DMSO control was then calculated for each assay point. Percent viability relative to DMSO control was plotted against compound concentration and a curve fitted with non-linear regression in GraphPad Prism software. IC50 values were calculated using GraphPad Prism software as follows: For Relative IC50 values a non-constrained four-parameter logistic curve fit was used (Sigmoidal, 4PL, X is concentration). For Absolute IC50 values the baseline was constrained to Y=0 (Absolute IC50, X is concentration). Area Under the Curve (AUC): Prism computes area-under-the-curve by the trapezoidal method. The analysis sees a fitted curve as simply a series of connected XY points. Prism simply computes the area under the “curve” defined by connecting the points by straight lines. The units of the AUC are the units of the Y axis times units of the X axis.

Row | Compound | pEC50 [1] | pEC50 [2] | pEC50 [3]
1 | C[C@H](NC(=O)c1cnc2c(C3=CC[C@@H](C(F)(F)F)CC3)cccc2c1)c1ncco1 (single isomer, unassigned) [Compound 19, N-(1-(oxazol-2-yl)ethyl)-8-(4-(trifluoromethyl)cyclohex-1-en-1-yl)quinoline-3-carboxamide] | > 6.70 | > 6.70 | > 6.70
2 | C[C@@H](NC(=O)c1cnc2c(C3=CCC4(CC3)CC4)cccc2c1)c1ncco1 [Compound 166, (R)—N-(1-(oxazol-2-yl)ethyl)-8-(spiro[2.5]oct-5-en-6-yl)quinoline-3-carboxamide] | > 6.70 | > 6.70 | > 6.70
3 | COc1cc(C2=CCC(C(F)(F)F)CC2)c2ncc(C(=O)N[C@H](C)CO)cc2c1 (stereo partly drawn) [Compound 110, N—((R)-1-hydroxypropan-2-yl)-6-methoxy-8-(4-(trifluoromethyl)cyclohex-1-en-1-yl)quinoline-3-carboxamide] | > 6.70 | > 6.70 | > 6.70
4 | C[C@H](CO)NC(=O)c1cnc2c(C3=CCC(C(F)(F)F)CC3)cccc2c1 (stereo partly drawn) [Compound 7, N—((R)-1-hydroxypropan-2-yl)-8-(4-(trifluoromethyl)cyclohex-1-en-1-yl)quinoline-3-carboxamide] | > 6.70 | > 6.70 | > 6.70
5 | O=C(NCc1ccn[nH]1)c1cnc2c(C3=CCC(C(F)(F)F)CC3)cccc2c1 (stereo not drawn) [Compound 47, N-((1H-pyrazol-5-yl)methyl)-8-(4-(trifluoromethyl)cyclohex-1-en-1-yl)quinoline-3-carboxamide] | > 6.70 | > 6.70 | > 6.70
6 | O=C(NCc1ncco1)c1cnc2c(C3=CCC(C(F)(F)F)CC3)cccc2c1 (stereo not drawn) [Compound 11, N-(oxazol-2-ylmethyl)-8-(4-(trifluoromethyl)cyclohex-1-en-1-yl)quinoline-3-carboxamide] | > 6.70 | > 6.70 | > 6.70
7 | C=CC(=O)Nc1ccc(C)c(Oc2ccc(Cl)cc2)c1 [Compound 1-3, reference compound] | > 6.70 | > 6.70 | > 6.70
8 | C[C@H](CO)NC(=O)c1cnc2c(C3=CCC4(CC3)CC(F)(F)C4)cccc2c1 [Compound 165, (R)-8-(2,2-difluorospiro[3.5]non-6-en-7-yl)-N-(1-hydroxypropan-2-yl)quinoline-3-carboxamide] | > 6.70 | > 6.70 | > 6.70
9 | COC[C@H](CO)NC(=O)c1cnc2c(C3=CCC(C(F)(F)F)CC3)cccc2c1 (stereo partly drawn) [Compound 62, N—((S)-1-hydroxy-3-methoxypropan-2-yl)-8-(4-(trifluoromethyl)cyclohex-1-en-1-yl)quinoline-3-carboxamide] | > 6.70 | > 6.70 | > 6.70
10 | FC(F)(F)c1ccc(CN2CCC(C3CC(Br)=NO3)CC2)cc1 (stereo not drawn) [Compound 1-2, reference compound] | 6.00 to 6.70 | < 6.00 | > 6.70
11 | COc1cc(C2=CCC(C(F)(F)F)CC2)c2ncc(C(=O)N[C@H](C)c3ncco3)cc2c1 (stereo partly drawn) [Compound 109, 6-methoxy-N—((R)-1-(oxazol-2-yl)ethyl)-8-(4-(trifluoromethyl)cyclohex-1-en-1-yl)quinoline-3-carboxamide] | > 6.70 | > 6.70 | > 6.70
